# Entries after “also recorded” stand apart in the source; their conditions may differ.
# Columns and labels:
# [1] = system: myeloid dendritic cells (mDCs); experiment: mDCs pre-treated with curdlan and cultured with breast tumor derived products; phenotype staining and cytokine in supernatant; format: cell-based, human
# Source text: Isolation and culture of myeloid dendritic cells: DCs were purified from buffy coat of blood from healthy donors. Briefly, DCs were enriched from mononuclear cells by negative selection using a mixture of antibodies against lineage markers for CD3, CD14, CD16, CD19, CD56 and glycophorin A (Dynabeads® Human DC Enrichment Kit, Invitrogen). Cells from negative fraction were immuno-labeled with anti-human FITC-labeled lineage cocktail (CD3, CD14, CD16, CD19, CD20 and CD56, BD biosciences Cat. 340546); PE-labeled CD123 (mIgG1, clone 9F5, BD biosciences Cat. 340545), QR-labeled HLA-DR (mIgG2a, clone HK14, Sigma-Aldrich Cat. R8144) and APC-labeled CD11c (mIgG2b, clone S—HCL-3, BD biosciences Cat. 340544). DCs (lin^−, CD123^−, HLA-DR^+, CD11c^+) were sorted in a FACS Aria cytometer (BD Bioscience). DCs were seeded at 100×10^3 cells/well in 200 μl of medium (RPMI supplemented with glutamine 2 mM, penicillin 50 U/ml, streptomycin 50 μg/ml, MEM non-essential amino acids 0.1 mM, HEPES buffer 10 mM, sodium pyruvate 0.1 mM and 10% of human AB serum). DCs were cultured with medium alone or in the presence of 20 ng/ml of TSLP, or different tumor derived products. After 48 hrs DCs were harvested and washed. The stimulated cells were stained for phenotype analysis or co-culture with allogeneic naïve CD4 T cells.
# Tumor factors preparation: Tumor factors were obtained from supernatant of HS578T cells cultured in vitro or by sonication from tumor cell lines, human breast tumor tissue or tumors from humanized mice. Briefly, cell lines were culture in medium (RPMI supplemented with glutamine 2 mM, penicillin 50 U/ml, streptomycin 50 μg/ml, MEM non-essential amino acids 0.1 mM, HEPES buffer 10 mM, sodium pyruvate 0.1 mM and 10% of fetal calf serum), and when the cells reached 90% of confluence fresh medium was added and left the cells in culture for additional 48 hrs. For sonication cells or tissues were placed in PBS and were disrupted during 30 seconds at 4° C., with the power output adjusted at 4.5 level of the 60 sonic dismembrator (Fisher Scientific). Cellular debris were removed by centrifugation and the supernatant was collected and stored at −80° C.
# The present inventors believe that DC activators can modulate the functions of DCs and reprogram the immune microenvironment (FIG. 4 A). FIGS. 4B, 4C and 4D show the results when DCs were purified from buffy coat of blood from healthy donors. DCs were cultured with medium alone or in the presence of tumor derived products (FIG. 4B). The curdlan treatment is 3 min at room temperature prior to adding tumor supernatant. After 48 hrs, DCs were harvested and washed. The stimulated cells were staining for phenotype (OX40L, pSTAT4 and pSTAT6). The supernatant of DC culture was used for cytokine (IL-12p70) examination (FIGS. 4C and 4D).
# [2] = system: allogenic naive CD4+ T cells; experiment: curdlan-treated, tumor supernatant-activated mDCs co-cultured with allogenic naive CD4+ T cells; intracellular cytokines; format: cell-based, human; conditions: mDCs pre-treated with 100 ug/ml curdlan, MDA-MB231 supernatant 48 hrs, co-culture one week
# Source text: After one week, cells were collected and re-stimulated for intracellular cytokines analysis. The analysis of different studies showing the effect of curdlan treatment in the induction of TNFa+IL-13+ secreting cells is shown in FIG. 5 B.
# [3] = system: Hs578T breast cancer cells; experiment: breast tumor growth in tumor bearing humanized mice; format: in vivo, NOD/SCID/β2−/− mice; conditions: curdlan (100 ug/ml) co-injected with DCs and T cells at days 3, 6 and 9 post tumor implantation
# Source text: Tumor bearing humanized mice: CD34+hematopoietic progenitor cells (HPCs) were obtained from apheresis of adult healthy volunteers mobilized with G-CSF and purified as previously described. The CD34− fraction of apheresis was Ficoll purified, and obtained PBMCs were stored frozen and used as a source of autologous T cells. Three million CD34+HPCs were transplanted intravenously into sublethally irradiated (12 cGy/g body weight of 137Cs γ irradiation) NOD/SCID/β2−/− mice ([…]). After 4 weeks of engraftment 10 million Hs578T breast cancer cells were harvested from cultures and injected subcutaneously into the flanks of the mice. Mice were reconstituted with 10 million CD4+ T cells and 10 million CD8+ T cells autologous to the grafted CD34+ HPCs. CD4+ and CD8+ T cells were positively selected from thawed PBMCs using magnetic selection according to the manufacturer's instructions (Miltenyi Biotec). The purity was routinely >90%. […] Tumor size was monitored every 2-3 d. Tumor volume (ellipsoid) was calculated as follows: [(short diameter)^2×long diameter]/2.
# FIGS. 6A and 6B show NOD/SCID/β2−/− mice sub-lethally irradiated the day before tumor implantation. […] Tumor size was monitored every 2-3 d. Tumor volume (ellipsoid) was calculated as follows: [(short diameter)^2×long diameter]/2. […] Supernatant was harvested and cytokines were detected by Luminex.
# CD8+ T cells = experiment: curdlan-treated, tumor supernatant-activated mDCs co-cultured with allogenic naive total T cells; CD103 staining; format: cell-based, human; conditions: mDCs pre-treated with 100 ug/ml curdlan, MDA-MB231 supernatant 48 hrs, co-culture one week
# Method: Sorted mDCs (HLA-DR+/CD11c+/CD123−/Lin−) were pre-treated with 100 ug/ml curdlan and activated by supernatant of a breast cancer cell line (MDA-MB231) for 48 hrs and then co-culture with allogenic naive total T cells (FIG. 7A). After one week, cells were collected and stained with intraepithelial marker, CD 103, together with granzymeA and granzymeB staining CD8+ T cells were sorted from in vitro culture and intratumoral inject into NOD-SCID mice. After 3 days, tumors were harvested and digested with collagenase (FIG. 7B).
# [4] = curdlan treatment prior to tumor supernatant, 48 hrs
substance,measurement,setting,value
β-glucan,OX40L expression on mDCs (TSLP-mediated OX40L induction),[1]; [4],inhibition of TSLP-mediated OX40L induction; also recorded: can block OX40L expression
same,pSTAT4/pSTAT6 ratio in mDCs,[1]; [4],pSTAT4/pSTAT6 ratio increase
same,IL-12p70 secretion by mDCs,"[1]; mDCs activated by breast tumor supernatant, DC culture supernatant, 48 hrs",induction of IL-12p70 secretion; also recorded: secrete higher levels of IL-12p70; also recorded: secretion of high levels of IL-12p70
same,STAT6 phosphorylation in mDCs,[1]; tumor associated mDCs,blocking STAT6 phosphorylation; also recorded: block in STATE phosphorylation
same,expansion of TNFα and IL-13-producing CD4+ T cells (inflammatory Th2 phenotype),[2],can be inhibited; also recorded: do not expand TNFα and IL-13-producing CD4+ T cells; also recorded: non-expansion of TNFα and IL-13-producing CD4+ T cells
same,breast tumor growth / development,[3],blocks breast tumor growth; also recorded: can inhibit breast tumor development; also recorded: inhibited breast tumor development
same,expansion of CD8+ T cells expressing CD103,CD8+ T cells,expand CD8+ T cells expressing CD103
